Values belong to the compound of their own block, whether it stands above or below them.
Experiments:
[1] = Plasma protein binding rate test, cynomolgus monkey (equilibrium dialysis); type: in vitro ADME; details: 37° C., read-out: Plasma protein binding rate (%) in cynomolgus monkeys (converted)
Description: (§1) The sample was thoroughly mixed.

[2] = In vivo pharmacokinetics study in rats; parameters: species or system SD rat; details: male SD rats, oral 2 mg/kg; for AUC(0-t) at 24 h: read-out: AUC0-24 h
[3] = Plasma protein binding rate test, SD rat (equilibrium dialysis); type: in vitro ADME; details: 37° C., read-out: Plasma protein binding rate (%) in SD rats (converted)
Description: as §1

[4] = In vivo pharmacokinetic study in cynomolgus monkeys; parameters: species or system cynomolgus monkey; details: male cynomolgus monkeys
[5] = Plasma protein binding rate test, human (equilibrium dialysis); type: in vitro ADME; details: 37° C.
Description: as §1

[6] = Permeability test in MDR1-MDCKII monolayer cell model; type: in vitro ADME; details: dog; for efflux ratio at 2.5 h, 2 µM: MDCK-MDR1, pH 7.4, ER=Papp(BA)/Papp(AB); for Papp A→B at 2.5 h, 2 µM: MDCK-MDR1, pH 7.4, pH 7.40, 2.5 hours, 37±1° C., read-out: Apparent permeability coefficient (Papp (AB))
Experimental: Experimental objective: The permeability and efflux ratio of the compound of the present disclosure were determined using the MDR1-MDCKII monolayer cell model to assess its membrane permeability and potential for P-gp-mediated efflux transport.
Experimental protocol: MDR1-MDCKII cells (obtained from the Netherlands Cancer Institute) were seeded in 96-well plates (obtained from Corning) at a cell density of 3.33×10^5 cells/mL and cultured for 4 to 7 days to form confluent cell monolayers. Hank's balanced salt solution containing 10 mM HEPES (pH 7.40) was used as the transport buffer. The test compound was evaluated for bidirectional transport at a concentration of 2 μM, with the DMSO concentration in the incubation system maintained below 1%. After adding the samples, the cell plate was incubated at 37±1° C., 5% CO2, and saturated humidity for 2.5 hours. All samples were quantitatively analyzed using the LC-MS/MS method. The apparent permeability coefficient (Papp, cm/s) and efflux ratio (ER) were calculated using the following formula. Apparent permeability coefficient (Papp, cm/s) was calculated using the following formula: Papp=(dCr/dt)×Vr/(A×C0). Herein, dCr/dt represents the cumulative concentration of the compound at the receiving end per unit time (μM/s); Vr is the volume of the solution at the receiving end (with solution volumes at the apical and basolateral ends being 0.075 mL and 0.250 mL, respectively); A is the relative surface area of the cell monolayer (0.143 cm^2); C0 is the initial concentration of the test substance at the dosing end (μM) or the peak area ratio of the reference substance. The efflux ratio was calculated using the following formula: ER=Papp(BA)/Papp(AB).

[7] = In vitro liver microsome metabolic stability study; type: in vitro ADME; details: human liver microsomes 0.5 mg/mL, compound 1 μM, 37° C., up to 60 minutes; read-out: Intrinsic hepatic clearance CLint(liver)
Experimental: Stock solution: 10 mM in DMSO.
Only 54 μL of microsomal working solution, 6 μL of NADPH regeneration system working solution, and 180 μL of stop solution were added to the blank plate.
LC-MS/MS analysis was performed.

[8] = test system: plasma protein; test: Plasma protein binding rate test, cynomolgus monkey (equilibrium dialysis); type: in vitro ADME; details: 37° C., 4 hours
Description: as §1

[9] = test system: plasma protein; test: Plasma protein binding rate test, human (equilibrium dialysis); type: in vitro ADME; details: 37° C., 4 hours
Description: as §1

[10] = molecular target: T1, human CYP11B2 (Homo sapiens, UniProt P19099); test: In vitro activity assay of monoclonal cells overexpressing human CYP11B2; type: cell-based; details: G402 cells overexpressing human CYP11B2; substrate 11-deoxycorticosterone; 16 hours; aldosterone by LCMS/MS
T1 construct: expressed in transfected cells; host or cells: human renal leiomyoma G402 cell line (monoclonal cells overexpressing human CYP11B2)
T1 sequence (P19099 25-503): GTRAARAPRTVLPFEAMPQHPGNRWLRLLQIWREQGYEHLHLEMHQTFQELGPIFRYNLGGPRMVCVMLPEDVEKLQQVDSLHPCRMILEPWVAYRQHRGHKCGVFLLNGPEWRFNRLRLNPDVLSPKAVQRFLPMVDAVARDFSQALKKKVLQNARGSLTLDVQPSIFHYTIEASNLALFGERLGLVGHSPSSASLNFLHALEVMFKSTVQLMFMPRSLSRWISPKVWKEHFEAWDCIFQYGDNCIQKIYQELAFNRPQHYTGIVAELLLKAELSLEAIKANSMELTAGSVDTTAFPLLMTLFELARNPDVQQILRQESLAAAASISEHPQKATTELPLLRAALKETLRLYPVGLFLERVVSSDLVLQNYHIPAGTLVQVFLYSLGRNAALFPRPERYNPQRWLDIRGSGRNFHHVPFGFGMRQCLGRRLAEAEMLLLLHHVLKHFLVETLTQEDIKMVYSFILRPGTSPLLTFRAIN
Experimental: The human renal leiomyoma G402 cell line overexpressing human CYP11B2 was selected to serve as a compound activity screening system.
• 2) Compound details: The test compound was prepared as a 10 μM working concentration using DMSO.
Day 1: Cells were digested, and human renal leiomyoma G402 cells overexpressing human CYP11B2 were resuspended to 1×10^5 cells/mL, with 100 μL seeded into a 96-well plate.
Day 2: The medium was replaced with DMEM/F12 containing 2.5% charcoal-stripped fetal bovine serum; test compounds were added: 5 μL of test compound was added to the cell culture medium to achieve final concentrations of 10000, 2500, 625, 156.25, 39.06, 9.77, 2.44, 0.61, 0.15, and 0 nM (with a DMSO content of 0.1%).
After one hour, the substrate was added: 30 mM 11-deoxycorticosterone was diluted 1500-fold with culture medium, and 5 μL was dispensed per well to achieve a final concentration of […], followed by incubation for 16 hours.
Day 3: The cell supernatant was collected and added to 200 μL of a methanol solution containing internal standards (internal standards: 35 ng/mL ketoprofen or 7.5 ng/mL carbamazepine or 5 ng/mL diphenhydramine or 10 ng/mL tolbutamide). The mixture was vortexed and centrifuged (4000×g, 4° C., 5 minutes). Then, 100 μL of the supernatant was taken and mixed with 100 μL of pure water. The mixture was centrifuged (4000 g, 4° C., 15 min), and the supernatant was analyzed by ESI-LCMS/MS. • 4) Data analysis:
Ratio=Aldosterone peak area/Internal standard peak area
Control activity %=(Ratio test compound/Ratio DMSO)×100%
“Ratio test compound” represents the Ratio values at different concentrations of the test compound.
“Ratio DMSO” represents the Ratio value without the addition of the test compound. • X=Log (compound concentration) • Y=Control activity %
The IC50 of the test compound was determined by fitting to a nonlinear regression equation using XLfit 5.5.0.

[11] = test system: patients with refractory hypertension; details: cited from earlier work
[12] = cynomolgus monkey, plasma, oral 3 mg/kg
[13] = 2 mg dose, patients with refractory hypertension

SMILES: CCC(=O)N[C@@H]1CCCc2c(-c3ccc4c(ccc(=O)n4C)c3)cncc21 (single isomer, unassigned) [Compound 001]
fraction unbound at 4 h [1]: 0.254
bioavailability ([2]; rat, plasma): 80%
half-life ([2]; rat, plasma): 4.61 h
Cmax ([2]; rat, plasma): 7.63 µM
AUC(0-t) at 24 h ([2]; rat, plasma): 59.1 µM·h
fraction unbound at 4 h [3]: 0.079
bioavailability [4, 12]: 120%
half-life [4, 12]: 4.99 h
Cmax ([4]; cynomolgus monkey, oral 3 mg/kg, plasma): 4 µM
AUC(0-t) at 24 h ([4]; cynomolgus monkey, oral 3 mg/kg, plasma, read-out: AUC0-24 h): 23.2 µM·h
fraction unbound at 4 h [5]: 0.239
efflux ratio at 2.5 h, 2 µM [6]: 1.76
Papp A→B at 2.5 h, 2 µM [6]: 17.2 ×10⁻⁶ cm/s
CLint scaled at 1 µM [7]: < 8.6 mL/min/kg

SMILES: CCC(=NOC)NC1CCCc2c(-c3ccc4c(c3)CCC(=O)N4C)cncc21 (single isomer, unassigned) [Compound 005]
fraction unbound at 4 h [1]: 0.127
bioavailability ([2]; rat, plasma): 111%
half-life ([2]; rat, plasma): 2.77 h
Cmax ([2]; rat, plasma): 1.31 µM
AUC(0-t) at 24 h ([2]; rat, plasma): 7.8 µM·h
fraction unbound at 4 h [3]: 0.102
fraction unbound at 4 h [5]: 0.106
efflux ratio at 2.5 h, 2 µM [6]: 0.7
Papp A→B at 2.5 h, 2 µM [6]: 23.1 ×10⁻⁶ cm/s

SMILES: Cc1noc(C)c1C(=O)N[C@@H]1CCCc2c(-c3cc4ccc(=O)n(C)c4cc3F)cncc21 (single isomer, unassigned) [Compound 020]
Plasma protein binding rate (%) in cynomolgus monkeys [8]: 90.3%
Human plasma protein binding rate (%) [9]: 85.6%

SMILES: CCC(=O)NC1CCCc2c(-c3cc4ccc(=O)n(C)c4s3)cncc21 (single isomer, unassigned) [Compound 023]
Plasma protein binding rate (%) in cynomolgus monkeys [8]: 69.0%
F [2]: 109%
T1/2 [2]: 3.6 h
AUC0-24 h ([2]; plasma): 44.234 µM·h
Cmax ([2]; plasma): 6.92 µM
F ([4]; oral 1 mg/kg): 76.5%
T1/2 ([4]; oral 1 mg/kg): 4.80 h
AUC0-24 h ([4]; oral 1 mg/kg, plasma): 8.916 µM·h
Cmax ([4]; oral 1 mg/kg, plasma): 1.32 µM
Human plasma protein binding rate (%) [9]: 69.6%

SMILES: CCC(=O)N[C@@H]1CCCc2c(-c3ccc4c(c3)CCC(=O)N4C)cncc21 [Baxdrostat]
office systolic and diastolic blood pressure [11, 13]: efficacy in reducing office systolic and diastolic blood pressure
safety and tolerability [11, 13]: favorable safety and tolerability profiles
aldosterone secretion levels ([11]; clinical studies): dose-dependent reduction
blood pressure ([11]; clinical studies): dose-dependent reduction
blood pressure reduction ([11]; phase 2 trials): significant blood pressure reduction
cortisol levels ([11]; phase 2 trials): no impact on cortisol levels
elevated blood potassium ([11]; phase 2 trials): rare occurrence of elevated blood potassium
steroid precursor accumulation ([11]; phase 2 trials): absence of steroid precursor accumulation

Second part, the compound after the results:

IC50 [10]: 62.7 nM
SMILES: CCC(=O)N[C@@H]1CCCc2c(-c3ccc4c(c3)c(C)cc(=O)n4C)cncc21 (single isomer, unassigned) [Compound 027]

fraction unbound at 4 h [1]: 0.203
fraction unbound at 4 h [5]: 0.193
efflux ratio at 2.5 h, 2 µM [6]: 0.89
Papp A→B at 2.5 h, 2 µM [6]: 20 ×10⁻⁶ cm/s
CLint scaled at 1 µM [7]: < 8.6 mL/min/kg
SMILES: CCC(=O)NC1CCCc2c(-c3cc(F)c4c(c3)OCC(=O)N4C)cncc21 (single isomer, unassigned) [Compound 031]

fraction unbound at 4 h [1]: 0.205
fraction unbound at 4 h [5]: 0.151
efflux ratio at 2.5 h, 2 µM [6]: 0.86
Papp A→B at 2.5 h, 2 µM [6]: 22.6 ×10⁻⁶ cm/s
CLint scaled at 1 µM [7]: < 8.6 mL/min/kg
SMILES: CCC(=O)NC1CCCc2c(-c3cc4c(cc3F)N(C)C(=O)CO4)cncc21 (single isomer, unassigned) [Compound 032]

fraction unbound at 4 h [1]: 0.32
fraction unbound at 4 h [5]: 0.239
efflux ratio at 2.5 h, 2 µM [6]: 1.3
Papp A→B at 2.5 h, 2 µM [6]: 16.7 ×10⁻⁶ cm/s
SMILES: CCC(=O)NC1CCOc2c(-c3cc4ccc(=O)n(C)c4s3)cncc21 (single isomer, unassigned) [Compound 045]

Source: patent US20260317314A1, “NITROGEN-CONTAINING HETEROCYCLIC COMPOUND AND USE THEREOF” (JIANGSU DEYUAN PHARMACEUTICAL CO.,LTD., priority 2023, published 2026)
